From PubChem BioAssay (NCI)
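Tested at 5 concentrations; 48 h exposure; 96-well plates; endpoints linearly interpolated, else capped at highest concentration. At the TGI there is no net growth.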

Columns and labels:
Test in all cases: growth of human tumour cells (NCI), 48 h
T-47D breast = system: T-47D breast
OVCAR-8 ovarian = system: OVCAR-8 ovarian
TK-10 renal = system: TK-10 renal
MOLT-4 leukemia = system: MOLT-4 leukemia
SF-539 CNS = system: SF-539 CNS
OVCAR-3 ovarian = system: OVCAR-3 ovarian
HCT-116 colon = system: HCT-116 colon
MDA-N = system: MDA-N
SK-OV-3 ovarian = system: SK-OV-3 ovarian
SK-MEL-28 melanoma = system: SK-MEL-28 melanoma
A498 renal = system: A498 renal
HCT-15 colon = system: HCT-15 colon

| Structure (SMILES) | TGI (T-47D breast) [µM] | TGI (OVCAR-8 ovarian) [µM] | TGI (TK-10 renal) [µM] | TGI (MOLT-4 leukemia) [µM] | TGI (SF-539 CNS) [µM] | TGI (OVCAR-3 ovarian) [µM] | TGI (HCT-116 colon) [µM] | TGI (MDA-N) [µM] | TGI (SK-OV-3 ovarian) [µM] | TGI (SK-MEL-28 melanoma) [µM] | TGI (A498 renal) [µM] | TGI (HCT-15 colon) [µM] |
| --- | --- | --- | --- | --- | --- | --- | --- | --- | --- | --- | --- | --- |
| CCCCCCc1cc(C=O)sc1-c1ccc(-c2sc(-c3ccc(-c4ccc(-c5cc(CCCCCC)c(-c6ccc(-c7sc(C=O)cc7CCCCCC)s6)s5)s4)s3)cc2CCCCCC)s1 | > 100 | > 100 | > 100 | > 100 | > 100 | > 100 | > 100 | > 100 | > 100 | > 100 | > 100 | > 100 |
| CCOC(=O)Nc1ccc(S(=O)(=O)Nc2ccc(Br)cc2)cc1 | > 100 | 68.4 | > 100 | > 100 | 35.4 | > 100 | > 100 | > 100 | > 100 | > 100 | 48.4 | > 100 |
| NC12c3c4cccc3Oc3cccc(c31)Oc1cccc(c12)O4 | > 50 | > 50 | – | > 50 | > 50 | > 50 | > 50 | > 50 | > 50 | > 50 | > 50 | > 50 |
| COc1ccc2c(c1)CCC(CN1CCN(CCOC(c3ccc(F)cc3)c3ccc(F)cc3)CC1)=C2 | > 100 | 63.2 | 44.4 | 48.7 | 42.3 | 50.6 | 21.2 | 47.2 | > 100 | 77.1 | 48.1 | 57.8 |
| COc1ccc2c(c1)CC[C@@H]1C2CC[C@]2(C)OC(=O)CCC12 (stereo not given in full) | > 100 | 28.4 | 97.8 | > 100 | 30.4 | 31.4 | 21.6 | 62.1 | > 100 | 34.3 | > 100 | > 100 |
| CCc1nnc2sc(-c3ccc(-c4ccc(Cl)cc4Cl)o3)nn12 | > 100 | > 100 | > 100 | > 100 | – | > 100 | > 100 | > 100 | > 100 | > 100 | > 100 | > 100 |
| CCOc1ccc(N=NC2C(=O)N(C(=O)CC(=O)Nc3ccc(Cl)cc3)N=C2C)cc1 (stereo not given) | > 100 | > 100 | > 100 | – | > 100 | > 100 | > 100 | > 100 | > 100 | > 100 | > 100 | – |
| N=C(/C=C/c1ccc(-c2cn3cc(/C=C/C(=N)N4CCOCC4)ccc3n2)cc1)N1CCOCC1 | > 100 | > 100 | > 100 | – | > 100 | > 100 | > 100 | > 100 | > 100 | > 100 | > 100 | > 100 |
| CCN(CC)P1(=S)Oc2ccc3ccccc3c2-c2c(ccc3ccccc23)O1 | > 100 | > 100 | > 100 | > 100 | > 100 | > 100 | > 100 | > 100 | > 100 | > 100 | > 100 | > 100 |
| Cc1ccc(Nc2ncnc3sc(SCc4ccccc4)nc23)cc1 | > 100 | > 100 | > 100 | > 100 | > 100 | > 100 | > 100 | > 100 | > 100 | > 100 | > 100 | > 100 |
| NS(=O)(=O)c1ccc(CNC(=S)NC(=O)Nc2ccc(Cl)c(Cl)c2)cc1 | 60.2 | 53.4 | > 100 | 40.2 | 41.5 | – | 32.6 | 46.4 | 52.8 | 69.8 | 33.5 | 31.8 |
| CC(=O)c1ccc2c(c1)CC1(C2)Cc2cc3c(cc2C1)C(=O)CC3 (stereo not given) | 69.3 | 19.5 | > 83 | – | 3.39 | 5.96 | 8.8 | 0.492 | > 66.1 | 30.4 | 4.22 | 13.2 |
| COc1ccccc1NC(=S)N/N=C(/c1ccccc1)c1ccccn1 | 27.2 | 10.5 | 18.3 | 0.403 | 12 | 16.5 | 14.7 | 21.5 | 13.8 | 23.9 | 12.5 | 20.3 |
| C(=N\NC1=NCCCN1)/c1ccc(-c2cn3cc(/C=N/NC4=NCCCN4)ccc3n2)cc1 | > 100 | > 89 | > 100 | 11.8 | > 100 | > 100 | > 100 | > 100 | > 100 | > 100 | > 78.5 | > 100 |
| CC(C)(C)[Si](C)(C)OCC1OC(n2ccc(=O)[nH]c2=O)C(O[Si](C)(C)C(C)(C)C)/C1=N/O (stereo not given) | 24.2 | 13.9 | 20.9 | 6.57 | 10.9 | > 100 | 7.11 | > 36.2 | 26 | 9.69 | 16.5 | 12.1 |
| COC(=O)c1ccc(/C=C/C2=CC(=O)C=CC2=O)cc1 | 33.5 | 61.5 | 44.4 | 7.11 | 45.6 | 38.4 | 29.6 | > 100 | – | 50.8 | 38.6 | 36.8 |
| COc1ccc(N=NN2CCCC2)cc1 | 49.2 | – | > 100 | 60.6 | 66.7 | 43.8 | 38.6 | 39.8 | > 100 | > 100 | > 100 | 60.7 |
